Our source for the IC50 values is patent publication US20240246918A1, “COMPOUNDS AND COMPOSITIONS AS EIF4E INHIBITORS AND THE USES THEREOF” (Ribometrix, Inc., priority 2022, published 2024).

The term IC50 denotes the concentration that gives 50% inhibition.

The structures appear in SMILES notation.

One assay deals with T1, human eIF4E protein (Homo sapiens, UniProt P06730).
T1 construct: purchased Novus NBP-45314
Description: Biochemical competitive binding assay (TR-FRET competition, EDA-m7GDP-ATTO-647N probe). As to conditions: read-out: hEIF4E TR-FRET IC50. The procedure, abridged: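 IC50 values come from 4-parameter fits of the normalized 665/620 nm TR-FRET ratio. Compound was first incubated 15 min with 4 nM recombinant His-eIF4E bound to 2.5 nM Eu-anti-His antibody, then 15 min with 5 nM m7GDP-ATTO-647N tracer, in pH 7.5 HEPES buffer with 100 mM KCl, Tween-20 and BSA.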
For orientation: Time-resolved FRET reads energy transfer from a long-lived donor to a nearby acceptor.

The test system of assay [1] is COLO 205 colorectal tumor cells. Kind of assay: Tumor cell viability inhibition assay (CellTiter-Glo 2.0, 72 hours). Format: cell-based. As to conditions: COLO 205 cell viability. The procedure, abridged: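 IC50 derived by 4-parameter fitting after normalizing luminescence to DMSO and max-inhibition wells. Compounds tested as 11 concentrations in 4-fold steps on COLO 205 cells seeded at 1500 per well in RPMI-1640/10% FBS; ATP content measured with CellTiter-Glo 2.0 after 72 h.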
In general terms: Cellular ATP, detected with luciferase, serves as a proxy for viable cell number.

T1 sequence (P06730 whole entry): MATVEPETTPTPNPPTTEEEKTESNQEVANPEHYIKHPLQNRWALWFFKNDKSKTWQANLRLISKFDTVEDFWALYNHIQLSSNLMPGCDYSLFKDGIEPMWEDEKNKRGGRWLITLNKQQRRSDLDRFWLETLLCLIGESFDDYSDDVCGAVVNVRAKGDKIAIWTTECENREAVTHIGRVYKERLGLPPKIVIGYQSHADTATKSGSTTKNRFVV

Consider `Cc1nc2c(c(=O)n1CC#Cc1ccc(Cl)cc1-c1ccnc3c(C(=O)O)csc13)C[C@@H](N1CCC[C@@]3(C1)CC3(F)F)CC2` (single isomer, unassigned) [Compound 538, 7-(5-chloro-2-(3-(6-(1,1-difluoro-5-azaspiro[2.5]octan-5-yl)-2-methyl-4-oxo-5,6,7,8-tetrahydroquinazolin-3(4H)-yl)prop-1-yn-1-yl)phenyl)thieno[3,2-b]pyridine-3-carboxylic acid], for which the IC50 is less than 100 nM at human eIF4E protein and less than 5000 nM in assay [1] (Homo sapiens, COLO 205, 72 h).

For `Cc1cc(-c2cc(Cl)ccc2OCCn2c(C)nc3c(c2=O)C[C@@](C)(N2CCC[C@]4(C2)CC4(F)F)CC3)c2scc(C(=O)O)c2n1` (single isomer, unassigned) [Compound 539], the IC50 was less than 100 nM at human eIF4E protein and less than 5000 nM in assay [1] (Homo sapiens, COLO 205, 72 h).

For `Cc1cc(-c2cc(Cl)ccc2OCCn2c(C)nc3c(c2=O)C[C@H](N2CCCC[C@H]2c2cccc(F)c2)CC3)c2scc(C(=O)O)c2n1` (single isomer, unassigned) [Compound 540], the IC50 is less than 100 nM at human eIF4E protein and less than 5000 nM in assay [1] (Homo sapiens, COLO 205, 72 h).

Turning to `Cc1cc(-c2cc(Cl)ccc2OCCn2c(C)nc3c(c2=O)C[C@H](N2CCCC[C@@H]2c2cccc(F)c2)CC3)c2scc(C(=O)O)c2n1` (single isomer, unassigned) [Compound 541], the IC50 was less than 100 nM on human eIF4E protein and less than 5000 nM in assay [1] (Homo sapiens, COLO 205, 72 h).

For the compound `Cc1cc(-c2cc(Cl)ccc2OCCn2c(C)nc3c(c2=O)C[C@@H](N2CCCC[C@H]2c2cccc(F)c2)CC3)c2scc(C(=O)O)c2n1` (single isomer, unassigned) [Compound 542], the IC50 at human eIF4E protein was less than 100 nM; in assay [1] (Homo sapiens, COLO 205, 72 h), less than 5000 nM.

Take `Cc1cc(-c2cc(Cl)ccc2OCCn2c(C)nc3c(c2=O)C[C@@H](N2CCCC[C@@H]2c2cccc(F)c2)CC3)c2scc(C(=O)O)c2n1` (single isomer, unassigned) [Compound 543]: the IC50 is less than 100 nM at human eIF4E protein and more than 20000 nM in assay [1] (Homo sapiens, COLO 205, 72 h).

`Cc1cc(-c2cc(Cl)ccc2OCCn2c(C)nc3c(c2=O)C[C@@H](N2CCCC(F)(F)CC2)CC32CC2)c2scc(C(=O)O)c2n1` (single isomer, unassigned) [Compound 544]: the IC50 on human eIF4E protein was less than 100 nM; in assay [1] (Homo sapiens, COLO 205, 72 h) it was less than 5000 nM.

Consider `Cc1cc(-c2cc(Cl)ccc2OCCn2c(C)nc3c(c2=O)C[C@H](N2CCCC(F)(F)CC2)CC32CC2)c2scc(C(=O)O)c2n1` (single isomer, unassigned) [Compound 545], for which the IC50 on human eIF4E protein was less than 100 nM; in assay [1] (Homo sapiens, COLO 205, 72 h), less than 5000 nM.

With `Cc1cc(-c2cc(Cl)ccc2OCCn2c(C)nc3c(c2=O)C[C@H](N2CCCC[C@H]2c2nccs2)CC3)c2scc(C(=O)O)c2n1` (single isomer, unassigned) [Compound 546], the IC50 on human eIF4E protein was less than 100 nM; in assay [1] (Homo sapiens, COLO 205, 72 h), less than 5000 nM.

Regarding `Cc1cc(-c2cc(Cl)ccc2OCCn2c(C)nc3c(c2=O)C[C@H](N2CCCC[C@@H]2c2nccs2)CC3)c2scc(C(=O)O)c2n1` (single isomer, unassigned) [Compound 547], the IC50 on human eIF4E protein was less than 100 nM; in assay [1] (Homo sapiens, COLO 205, 72 h), less than 5000 nM.

Consider `Cc1cc(-c2cc(Cl)ccc2OCCn2c(C)nc3c(c2=O)C[C@@H](N2CCCC[C@H]2c2nccs2)CC3)c2scc(C(=O)O)c2n1` (single isomer, unassigned) [Compound 548], for which the IC50 was 100 to 500 nM on human eIF4E protein and more than 20000 nM in assay [1] (Homo sapiens, COLO 205, 72 h).

Regarding `Cc1cc(-c2cc(Cl)ccc2OCCn2c(C)nc3c(c2=O)C[C@@H](N2CCCC[C@@H]2c2nccs2)CC3)c2scc(C(=O)O)c2n1` (single isomer, unassigned) [Compound 549], the IC50 was 100 to 500 nM at human eIF4E protein and more than 20000 nM in assay [1] (Homo sapiens, COLO 205, 72 h).

For `Cc1nc2c(c(=O)n1CC#Cc1ccc(Cl)cc1-c1ccnc3c(C(=O)O)csc13)C[C@H](N1CCC[C@@]3(C1)CC3(F)F)CC2` (single isomer, unassigned) [Compound 550, 7-(5-chloro-2-(3-(6-(1,1-difluoro-5-azaspiro[2.5]octan-5-yl)-2-methyl-4-oxo-5,6,7,8-tetrahydroquinazolin-3(4H)-yl)prop-1-yn-1-yl)phenyl)thieno[3,2-b]pyridine-3-carboxylic acid], the half-inhibitory concentration (IC50) at human eIF4E protein was less than 100 nM; in assay [1] (Homo sapiens, COLO 205, 72 h) it was less than 5000 nM.

In the case of `CO[C@@H](C1CCN([C@@H]2CCc3nc(C)n(CCOc4ccc(Cl)cc4-c4cc(C)nc5c(C(=O)O)csc45)c(=O)c3C2)CC1)C(F)(F)F` (single isomer, unassigned) [Compound 551], the IC50 at human eIF4E protein was less than 100 nM; in assay [1] (Homo sapiens, COLO 205, 72 h) it was less than 5000 nM.

Take `CO[C@H](C1CCN([C@@H]2CCc3nc(C)n(CCOc4ccc(Cl)cc4-c4cc(C)nc5c(C(=O)O)csc45)c(=O)c3C2)CC1)C(F)(F)F` (single isomer, unassigned) [Compound 552]: the IC50 at human eIF4E protein was less than 100 nM; in assay [1] (Homo sapiens, COLO 205, 72 h), less than 5000 nM.

On to `Cc1cc(-c2cc(Cl)ccc2OCCn2c(C)nc3c(c2=O)C[C@](C)(N2CCC[C@]4(C2)CC4(F)F)CC3)c2scc(C(=O)O)c2n1` (single isomer, unassigned) [Compound 553], for which the IC50 was less than 100 nM on human eIF4E protein and less than 5000 nM in assay [1] (Homo sapiens, COLO 205, 72 h).

In the case of `Cc1cc(-c2cc(Cl)ccc2OCCn2c(C)nc3c(c2=O)C[C@](C)(N2CCC[C@@]4(C2)CC4(F)F)CC3)c2scc(C(=O)O)c2n1` (single isomer, unassigned) [Compound 554], the IC50 at human eIF4E protein was in the range of 100 to 500 nM; in assay [1] (Homo sapiens, COLO 205, 72 h) it was 5000 to 20000 nM.

Regarding `Cc1cc(-c2cc(Cl)ccc2OCCn2c(C)nc3c(c2=O)C[C@@](C)(N2CCC[C@@]4(C2)CC4(F)F)CC3)c2scc(C(=O)O)c2n1` (single isomer, unassigned) [Compound 555], the IC50 at human eIF4E protein was in the range of 100 to 500 nM; in assay [1] (Homo sapiens, COLO 205, 72 h) it was 5000 to 20000 nM.

Turning to `Cc1cc(-c2cc(Cl)ccc2OCCn2c(C)nc3c(c2=O)CC(C)(N2CCC4(CC2)CC4(F)F)CC3)c2scc(C(=O)O)c2n1` (single isomer, unassigned) [Compound 556], the IC50 is less than 100 nM on human eIF4E protein and less than 5000 nM in assay [1] (Homo sapiens, COLO 205, 72 h).

Consider `Cc1cc(-c2cc(Cl)ccc2OCCn2c(C)nc3c(c2=O)CC(C)(N2CCC4(CC2)CC4(F)F)CC3)c2scc(C(=O)O)c2n1` (single isomer, unassigned) [Compound 557], for which the IC50 on human eIF4E protein was less than 100 nM; in assay [1], less than 5000 nM.

As for `CO[C@@H]1CCN([C@]2(C)CCc3nc(C)n(CCOc4ccc(Cl)cc4-c4cc(C)nc5c(C(=O)O)csc45)c(=O)c3C2)CC1(C)C` (single isomer, unassigned) [Compound 558], the IC50 lay within 100 to 500 nM at human eIF4E protein and 5000 to 20000 nM in assay [1] (Homo sapiens, COLO 205, 72 h).

With `COC1CCN(C2(C)CCc3nc(C)n(CCOc4ccc(Cl)cc4-c4cc(C)nc5c(C(=O)O)csc45)c(=O)c3C2)CC1(C)C` (single isomer, unassigned) [Compound 559], the IC50 at human eIF4E protein lay within 100 to 500 nM; in assay [1] (Homo sapiens, COLO 205, 72 h), 5000 to 20000 nM.

For the compound `Cc1cc(-c2cc(Cl)ccc2OCCn2c(C)nc3c(c2=O)C[C@H](N2CCC(COC(F)(F)F)CC2)CC32CC2)c2scc(C(=O)O)c2n1` (single isomer, unassigned) [Compound 560], the IC50 was less than 100 nM on human eIF4E protein and less than 5000 nM in assay [1] (Homo sapiens, COLO 205, 72 h).

Consider `Cc1cc(-c2cc(Cl)ccc2OCCn2c(C)nc3c(c2=O)C[C@@H](N2CCC(COC(F)(F)F)CC2)CC32CC2)c2scc(C(=O)O)c2n1` (single isomer, unassigned) [Compound 561], for which the IC50 on human eIF4E protein was less than 100 nM; in assay [1] (Homo sapiens, COLO 205, 72 h), less than 5000 nM.

As for `CO[C@@H](C1CCN([C@H]2CCc3nc(C)n(CCOc4ccc(Cl)cc4-c4cc(C)nc5c(C(=O)O)csc45)c(=O)c3C2)CC1)C(F)(F)F` (single isomer, unassigned) [Compound 562], the IC50 on human eIF4E protein was less than 100 nM; in assay [1] (Homo sapiens, COLO 205, 72 h) it was less than 5000 nM.

Regarding `CO[C@H](C1CCN([C@H]2CCc3nc(C)n(CCOc4ccc(Cl)cc4-c4cc(C)nc5c(C(=O)O)csc45)c(=O)c3C2)CC1)C(F)(F)F` (single isomer, unassigned) [Compound 563], the IC50 was less than 100 nM on human eIF4E protein and less than 5000 nM in assay [1] (Homo sapiens, COLO 205, 72 h).

Take `Cc1cc(-c2cc(Cl)ccc2OCCn2c(C)nc3c(c2=O)C[C@H](N2CCC4(CC2)CC4(F)F)CC32CC2)c2scc(C(=O)O)c2n1` (single isomer, unassigned) [Compound 564]: the IC50 is less than 100 nM on human eIF4E protein and less than 5000 nM in assay [1] (Homo sapiens, COLO 205, 72 h).

For the compound `COC1CCN(C2(C)CCc3nc(C)n(CCOc4ccc(Cl)cc4-c4cc(C)nc5c(C(=O)O)csc45)c(=O)c3C2)CC1(C)C` (single isomer, unassigned) [Compound 565], the IC50 on human eIF4E protein is less than 100 nM; in assay [1], less than 5000 nM.

With `Cc1cc(-c2cc(Cl)ccc2OCCn2c(C)nc3c(c2=O)C[C@H](N(C)CC2CC(F)(F)C2)CC32CC2)c2scc(C(=O)O)c2n1` (single isomer, unassigned) [Compound 568], the IC50 at human eIF4E protein was less than 100 nM; in assay [1] (Homo sapiens, COLO 205, 72 h), less than 5000 nM.

Consider `Cc1cc(-c2cc(Cl)ccc2OCCn2c(C)nc3c(c2=O)C[C@@H](N(C)CC2CC(F)(F)C2)CC32CC2)c2scc(C(=O)O)c2n1` (single isomer, unassigned) [Compound 569], for which the IC50 at human eIF4E protein was less than 100 nM; in assay [1] (Homo sapiens, COLO 205, 72 h), less than 5000 nM.

For the compound `Cc1nc2c(c(=O)n1CC#Cc1ccc(Cl)cc1-c1ccnc3c(C(=O)O)csc13)C[C@H](N1CCC[C@]3(C1)CC3(F)F)CC2` (single isomer, unassigned) [Compound 570, 7-(5-chloro-2-(3-(6-(1,1-difluoro-5-azaspiro[2.5]octan-5-yl)-2-methyl-4-oxo-5,6,7,8-tetrahydroquinazolin-3(4H)-yl)prop-1-yn-1-yl)phenyl)thieno[3,2-b]pyridine-3-carboxylic acid], the IC50 at human eIF4E protein is less than 100 nM; in assay [1] (Homo sapiens, COLO 205, 72 h), less than 5000 nM.

Turning to `Cc1cc(-c2cc(Cl)ccc2OCCn2c(C)nc3c(c2=O)C[C@H](N2CCC(c4ccccc4OC(F)(F)F)CC2)CC3)c2scc(C(=O)O)c2n1` (single isomer, unassigned) [Compound 571], the IC50 on human eIF4E protein is less than 100 nM; in assay [1] (Homo sapiens, COLO 205, 72 h), less than 5000 nM.
